SMILES strings stand for the structures.

In one test the target is P2X3 receptor. As to the kind of experiment: Antagonist activity against rat or human P2X3 receptor expressed in HEK293/1321N1 cells assessed as inhibition of alpha,beta-meATP/ATP-induced calcium influx by Fluo-4 dye based FLIPR assay. Format: functional, cell-based.
With `N#Cc1cc(C2CC2)ccc1N1CCc2ncnc(NCc3ccc(C(F)(F)F)nc3)c2C1`, the IC50 (commonly the concentration at which inhibition is half-maximal) was determined as 870 nM.
Take `Cc1ccc(N2CCc3ncnc(NCc4cccc(C#N)c4)c3C2)c(C#N)c1`: the 50% inhibitory concentration (IC50) was 183 nM.
For `Cc1ccc(N2CCc3ncnc(NCc4ncc(Cl)cc4Cl)c3C2)c(C#N)c1`, the IC50 is 41 nM.
The same measure, in the same setting: then `Cc1ccc(N2CCc3ncnc(NCc4ccc5nccnc5c4)c3C2)c(C#N)c1`, with 34 nM.
The same measure, in the same setting: under `Cc1ccc(N2CCc3ncnc(NCc4ccc(C)c(N5CCOCC5)c4)c3C2)c(C#N)c1` stands 96 nM; under `N#Cc1cc(Cl)ccc1N1CCc2ncnc(NCc3ncc(C(F)(F)F)cc3Cl)c2C1`, 91 nM.
In the case of `CCc1ccc(CNc2ncnc3c2CN(c2ccc(C)cc2C#N)CC3)cn1`, the concentration for half-maximal inhibition (IC50) stood at 38 nM.
For `Cc1ccc(N2CCc3ncnc(NCc4ccc(Cl)c(-n5cnnc5)c4)c3C2)c(C#N)c1`, the IC50 came to 31 nM.
`Cc1ccc(N2CCc3ncnc(N[C@H](CCO)c4ccc(C(F)(F)F)nc4)c3C2)c(C#N)c1`: the concentration for half-maximal inhibition (IC50) was determined as 23 nM.
Same read-out and setting: then `N#Cc1cc(Br)ccc1N1CCc2ncnc(NCc3ccc(C(F)(F)F)nc3)c2C1`, with 80 nM; and `Cc1ccc(N2CCc3ncnc(NCc4ccc(Cl)cn4)c3C2)c(C#N)c1`, with 29 nM.
As to `Cc1ccc(N2CCc3ncnc(NC(CCO)c4ccc(C(F)(F)F)nc4)c3C2)c(C#N)c1` (configuration not stated), the half-inhibitory concentration (IC50) is 55 nM.
The same measure, in the same setting: under `N#Cc1cc(Cl)ccc1N1CCc2ncnc(NCc3ccc(C(F)(F)F)nc3)c2C1` stands 37 nM.
For the compound `Cc1ccc(N2CCc3ncnc(NCc4ccc(C)c(S(C)(=O)=O)c4)c3C2)c(C#N)c1`, the IC50 stood at 16 nM.
Regarding `CC(=O)OCC[C@@H](Nc1ncnc2c1CN(c1ccc(C)cc1C#N)CC2)c1ccc(C(F)(F)F)nc1`, the half-inhibitory concentration (IC50) was determined as 130 nM.
Same read-out and setting: then `Cc1ccc(N2CCc3ncnc(N[C@H](CO)c4ccc(C(F)(F)F)nc4)c3C2)c(C#N)c1`, with 21 nM.
Regarding `Cc1ccc(N2CCc3ncnc(NCc4cccc(-n5cnnc5)c4)c3C2)c(C#N)c1`, the IC50 was determined as 65 nM.
`N#Cc1cc(Cl)ccc1N1CCc2ncnc(NCc3cccc(-n4cnnc4)c3)c2C1`: the IC50 is 284 nM.
For `N#Cc1ccccc1N1CCc2ncnc(NCc3ccc(C(F)(F)F)nc3)c2C1`, the IC50 is 63 nM.
Same read-out and setting: under `Cc1ccc(CNc2ncnc3c2CN(c2ccc(Cl)cc2C#N)CC3)cc1S(C)(=O)=O` stands 40 nM; under `Cc1ccc(N2CCc3ncnc(NCc4ccc(C5CC5)cn4)c3C2)c(C#N)c1`, 236 nM.
On the same count and under the same terms, then `CSc1cc(CNc2ncnc3c2CN(c2ccc(C)cc2C#N)CC3)ccc1C`, with 474 nM; and `Cc1nc(C(F)(F)F)ccc1CNc1ncnc2c1CN(c1ccc(Cl)cc1C#N)CC2`, with 187 nM; and `Cc1ccc(N2CCc3ncnc(NCc4ccc(Cl)c(S(C)(=O)=O)c4)c3C2)c(C#N)c1`, with 37 nM.
Still for that read-out and setting: then `N#Cc1cc(Cl)ccc1N1CCc2ncnc(N[C@H](CCO)c3ccc(C(F)F)nc3)c2C1`, with 32 nM; and `N#Cc1cc(Cl)ccc1N1CCc2ncnc(N[C@H](CCO)c3ccc(C(F)(F)F)nc3)c2C1`, with 90 nM; and `Cc1ccc(N2CCc3ncnc(NCc4ccc5cccnc5c4)c3C2)c(C#N)c1`, with 20 nM.
As to `N#Cc1cc(Cl)ccc1N1CCc2ncnc(NCc3ccn4ccnc4c3)c2C1`, the concentration for half-maximal inhibition (IC50) is 122 nM.
Still for that read-out and setting: then `N#Cc1cc(C(F)(F)F)ccc1N1CCc2ncnc(NCc3ccc(C(F)(F)F)nc3)c2C1`, with 1840 nM; and `N#Cc1cc(Cl)ccc1N1CCc2ncnc(N[C@H](CO)c3ccc(C(F)(F)F)nc3)c2C1`, with 54 nM.
The same measure, in the same setting: then `Cc1ccc(N2CCc3ncnc(NCc4ccc5ccccc5n4)c3C2)c(C#N)c1`, with 156 nM.
Still for that read-out and setting: then `N#Cc1cc(Cl)ccc1N1CCc2ncnc(NCc3ccc(Cl)c(-n4cnnc4)c3)c2C1`, with 41 nM; and `Cc1ccc(N2CCc3ncnc(NCc4ccc5c(c4)OCO5)c3C2)c(C#N)c1`, with 56 nM.
For `Cc1ccc(N2CCc3ncnc(NCc4ccc(Cl)nc4)c3C2)c(C#N)c1`, the IC50 was 11 nM.
`N#Cc1cc(F)ccc1N1CCc2ncnc(NCc3ccc(C(F)(F)F)nc3)c2C1`: the concentration for half-maximal inhibition (IC50) is 85 nM.
The same measure, in the same setting: under `Cc1ccc(N2CCc3ncnc(NCc4ccc(C)c(F)c4)c3C2)c(C#N)c1` stands 89 nM; under `CN(C)c1ccc(CNc2ncnc3c2CN(c2ccc(Cl)cc2C#N)CC3)cn1`, 628 nM; under `COc1ccc(CNc2ncnc3c2CN(c2ccc(Cl)cc2C#N)CC3)cn1`, 59 nM.
Consider `Cc1ccc(N2CCc3ncnc(NCc4ccc(C(F)(F)F)nc4)c3C2)c(C#N)c1`, for which the 50% inhibitory concentration (IC50) was 19 nM.
Turning to `COc1ccc(CNc2ncnc3c2CN(c2ccc(Br)cc2C#N)CC3)cn1`, the IC50 was determined as 78 nM.
With `N#Cc1cc(Cl)ccc1N1CCc2ncnc(NCc3ccc(C(F)(F)F)cn3)c2C1`, the half-inhibitory concentration (IC50) was found to be 118 nM.
`Cc1ccc(N2CCc3ncnc(NCc4ccn5ccnc5c4)c3C2)c(C#N)c1`: the IC50 is 18 nM.
In the case of `Cc1ccc(N2CCc3ncnc(N[C@@H](CCO)c4ccc(C(F)(F)F)nc4)c3C2)c(C#N)c1`, the IC50 is 806 nM.
On the same count and under the same terms, under `COc1ccc([C@@H](CO)Nc2ncnc3c2CN(c2ccc(Cl)cc2C#N)CC3)cn1` stands 23 nM; under `COc1ccc([C@@H](CC(=O)O)Nc2ncnc3c2CN(c2ccc(Cl)cc2C#N)CC3)cn1`, 1380 nM; under `N#Cc1cc(Cl)ccc1N1CCc2ncnc(NCc3ccc4nccnc4c3)c2C1`, 125 nM.
Turning to `Cc1ccc(N2CCc3ncnc(N[C@H](CCO)c4ccc(C(F)F)nc4)c3C2)c(C#N)c1`, the IC50 was determined as 13 nM.
For the compound `COc1ccc([C@@H](CCO)Nc2ncnc3c2CN(c2ccc(Cl)cc2C#N)CC3)cn1`, the half-maximal inhibitory concentration (IC50) turned out to be 33 nM.
Still for that read-out and setting: under `Cc1ccc(N2CCc3ncnc(NCc4ccc5ocnc5c4)c3C2)c(C#N)c1` stands 15 nM; under `Cc1ccc(N2CCc3ncnc(NCc4ccc5cc[nH]c5c4)c3C2)c(C#N)c1`, 423 nM.
For `Cc1ccc(N2CCc3ncnc(NCc4ccc(C)c(C#N)c4)c3C2)c(C#N)c1`, the concentration for half-maximal inhibition (IC50) stood at 63 nM.
Consider `N#Cc1cc(Cl)ccc1N1CCc2ncnc(N[C@H](CO)c3ccc(C(F)F)nc3)c2C1`, for which the IC50 was 16 nM.
The same measure, in the same setting: under `COc1ccc([C@H](CC(=O)OC(C)(C)C)Nc2ncnc3c2CN(c2ccc(Cl)cc2C#N)CC3)cn1` stands above 10000 nM; under `Cc1ccc(N2CCc3ncnc(NCc4ccc(C)c(I)c4)c3C2)c(C#N)c1`, 512 nM; under `Cc1ccc(N2CCc3ncnc(NCc4ccc(C)c(-n5cncn5)c4)c3C2)c(C#N)c1`, 21 nM.
Regarding `Cc1ccc(N2CCc3ncnc(NCc4ccccn4)c3C2)c(C#N)c1`, the half-inhibitory concentration (IC50) was 196 nM.

A further test concerns the target T1, P2X2/P2X3 heterotrimeric receptor (Homo sapiens, UniProt P56373+Q9UBL9).
T1 sequence (Q9UBL9 whole entry): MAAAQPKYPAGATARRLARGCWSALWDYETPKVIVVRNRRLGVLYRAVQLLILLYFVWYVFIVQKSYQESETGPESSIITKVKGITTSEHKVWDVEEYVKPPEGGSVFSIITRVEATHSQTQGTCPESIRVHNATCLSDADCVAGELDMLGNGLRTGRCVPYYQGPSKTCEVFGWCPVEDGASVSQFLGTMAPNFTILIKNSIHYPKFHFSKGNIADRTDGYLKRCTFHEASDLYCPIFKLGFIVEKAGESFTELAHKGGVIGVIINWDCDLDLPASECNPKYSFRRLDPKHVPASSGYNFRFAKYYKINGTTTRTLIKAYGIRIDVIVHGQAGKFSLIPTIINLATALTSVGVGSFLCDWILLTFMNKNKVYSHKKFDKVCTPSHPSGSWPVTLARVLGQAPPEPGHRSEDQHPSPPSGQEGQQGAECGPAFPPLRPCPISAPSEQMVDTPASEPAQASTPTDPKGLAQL
T1 sequence (P56373 whole entry): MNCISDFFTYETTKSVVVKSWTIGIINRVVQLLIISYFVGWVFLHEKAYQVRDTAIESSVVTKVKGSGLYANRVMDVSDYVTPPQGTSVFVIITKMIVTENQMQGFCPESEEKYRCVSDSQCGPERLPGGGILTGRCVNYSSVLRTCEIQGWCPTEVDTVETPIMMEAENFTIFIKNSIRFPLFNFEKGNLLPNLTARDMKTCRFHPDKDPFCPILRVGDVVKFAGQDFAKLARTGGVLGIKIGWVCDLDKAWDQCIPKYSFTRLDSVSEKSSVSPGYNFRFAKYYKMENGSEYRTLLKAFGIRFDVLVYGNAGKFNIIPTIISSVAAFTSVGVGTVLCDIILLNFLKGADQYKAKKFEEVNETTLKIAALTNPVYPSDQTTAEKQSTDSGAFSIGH
Description: Antagonist activity against human P2X2/3 receptor expressed in HEK293/1321N1 cells assessed as inhibition of alpha,beta-meATP/ATP-induced calcium influx by Fluo-4 dye based FLIPR assay. It is filed as functional, cell-based.
With `COc1ccc([C@H](CC(=O)OC(C)(C)C)Nc2ncnc3c2CN(c2ccc(Cl)cc2C#N)CC3)cn1`, the IC50 was above 10000 nM.

The values are drawn from ChEMBL document CHEMBL3727369, “2-cyanophenyl fused heterocyclic compounds, and compositions and uses thereof” (2013).
